Literature values in paper PMC7395068, “The evolution of strategies to minimise the risk of human drug-induced liver injury (DILI) in drug discovery and development” (Archives of Toxicology, 2020).
Where a name gives a salt, the structure may show the parent alone. Read-outs that look alike come from different tables or passages of the source.

Details: cited from earlier work
[1] = binary in vivo DILI call given beside the severity category, ref Chen 2016
[2] = human DILI concern category (LTKB DILIrank), ref Chen 2016

SMILES	DILI +VE (5-8), DILI -VE (-4) (in vivo)	DILI severity category (in vivo)	DILI +VE (5-8), DILI -VE (-4) [1]	DILI severity category [2]
CC(C)(O)c1ccccc1CC[C@@H](SCC1(CC(=O)O)CC1)c1cccc(/C=C/c2ccc3ccc(Cl)cc3n2)c1 [montelukast]	+VE	vLess-DILI-Concern	–	–
CCOC(=O)Nc1ccc2c(c1)N(C(=O)CCN1CCOCC1)c1ccccc1S2 [moricizine]	–	–	-VE	Ambiguous DILI-concern
COc1c(N2C[C@@H]3CCCN[C@@H]3C2)c(F)cc2c(=O)c(C(=O)O)cn(C3CC3)c12 [moxifloxacin]	+VE	vLess-DILI-Concern	–	–
COc1c(C)c2c(c(O)c1C/C=C(\C)CCC(=O)OCCN1CCOCC1)C(=O)OC2 [mycophenolate mofetil]	–	–	+VE	vLess-DILI-Concern
COc1c(C)c2c(c(O)c1C/C=C(\C)CCC(=O)O)C(=O)OC2 [mycophenolic acid]	–	–	-VE	Ambiguous DILI-concern
CCCCCCC(C)(C)c1cc(O)c2c(c1)OC(C)(C)C1CCC(=O)CC21 (stereo not drawn) [nabilone]	–	–	-VE	vNo-DILI-Concern
COc1ccc2cc(CCC(C)=O)ccc2c1 [nabumetone]	–	–	-VE	Ambiguous DILI-concern
CCOc1ccc2ccccc2c1C(=O)N[C@@H]1C(=O)N2[C@@H]1SC(C)(C)[C@@H]2C(=O)O [nafcillin]	–	–	+VE	vLess-DILI-Concern
C=C1CC[C@@]2(O)[C@H]3Cc4ccc(O)c5c4[C@@]2(CCN3CC2CC2)[C@H]1O5 [nalmefene hydrochloride]	–	–	-VE	Ambiguous DILI-concern
CCCCCCCCCC(=O)O[C@H]1CC[C@H]2[C@@H]3CCC4=CC(=O)CC[C@@H]4[C@H]3CC[C@]12C [nandrolone decanoate]	–	–	+VE	vMost-DILI-Concern
CNS(=O)(=O)CCc1ccc2[nH]cc(C3CCN(C)CC3)c2c1 [naratriptan]	–	–	-VE	Ambiguous DILI-concern
COc1nc(N)nc2c1ncn2[C@@H]1O[C@H](CO)[C@@H](O)[C@@H]1O [nelarabine]	–	–	+VE	vLess-DILI-Concern
NC[C@@H]1O[C@H](O[C@H]2[C@@H](O)[C@H](O[C@@H]3[C@@H](O)[C@H](N)C[C@H](N)[C@H]3O[C@H]3O[C@H](CN)[C@@H](O)[C@H](O)[C@H]3N)O[C@@H]2CO)[C@H](N)[C@@H](O)[C@@H]1O [neomycin]	-VE	vNo-DILI-Concern	–	–
CN(C)Cc1ccc(CSCCN/C(=C\[N+](=O)[O-])NCc2ccc3c(c2)OCO3)o1 [niperotidine]	–	–	+VE	vMost-DILI-Concern
CC(=O)Oc1ccccc1C(=O)Nc1ncc([N+](=O)[O-])s1 [nitazoxanide]	–	–	-VE	vNo-DILI-Concern
O=C1CCCC(=O)C1C(=O)c1ccc(C(F)(F)F)cc1[N+](=O)[O-] [nitisinone]	–	–	-VE	Ambiguous DILI-concern
Cc1nc([N+](=O)[O-])cn1-c1ccc([N+](=O)[O-])cc1 [nitrefazole]	–	–	+VE	vMost-DILI-Concern
C#C[C@]1(OC(C)=O)CC[C@H]2[C@@H]3CCC4=CC(=O)CC[C@@H]4[C@H]3CC[C@@]21C [norethindrone acetate]	–	–	-VE	vNo-DILI-Concern
C[C@@H]1[C@H](O)[C@@H](C)/C=C/C=C/CC/C=C/C=C/C=C/C=C/C(O[C@H]2O[C@H](C)[C@@H](O)[C@H](N)[C@@H]2O)CC2O[C@](O)(CC(O)C(O)CCC(O)CC(O)CC(O)CC(=O)O[C@H]1C)CC(O)C2C(=O)O (stereo partly drawn) [nystatin]	–	–	-VE	vNo-DILI-Concern
O=C(O)c1cc(/N=N/c2ccc(O)c(C(=O)O)c2)ccc1O [olsalazine]	–	–	+VE	vLess-DILI-Concern
Cc1nccn1CC1CCc2c(c3ccccc3n2C)C1=O (stereo not drawn) [ondansetron]	–	–	+VE	vLess-DILI-Concern
Cc1onc(-c2ccccc2)c1C(=O)N[C@@H]1C(=O)N2[C@@H]1SC(C)(C)[C@@H]2C(=O)O [oxacillin]	–	–	+VE	vLess-DILI-Concern
O=C(O)C(=O)O.[NH-][C@@H]1CCCC[C@H]1[NH-].[Pt+2] [oxaliplatin]	–	–	+VE	vMost-DILI-Concern
O=C1Nc2ccc(Cl)cc2C(c2ccccc2)=NC1O (stereo not drawn) [oxazepam]	-VE	Ambiguous DILI-concern	–	–
COc1ccc2c3c1O[C@H]1C(=O)CC[C@@]4(O)[C@@H](C2)N(C)CC[C@]314 [oxycodone]	-VE	vNo-DILI-Concern	–	–
O=C1Nc2ccccc2C1(c1ccc(O)cc1)c1ccc(O)cc1 [oxyphenisatin]	+VE	vMost-DILI-Concern	–	–

SMILES	DILI +VE (5-8), DILI -VE (-4) (in vivo)	DILI severity category (in vivo)	DILI +VE (5-8), DILI -VE (-4) [1]	DILI severity category [2]
CC[C@H](C)[C@@H]1NC(=O)[C@H](Cc2ccc(O)cc2)NC(=O)[C@@H](N)CSSC[C@@H](C(=O)N2CCC[C@H]2C(=O)N[C@@H](CC(C)C)C(=O)NCC(N)=O)NC(=O)[C@H](CC(N)=O)NC(=O)[C@H](CCC(N)=O)NC1=O [oxytocin]	-VE	vNo-DILI-Concern	–	–
CONC(=N)c1ccc(-c2ccc(-c3ccc(C(=N)NOC)cc3)o2)cc1 [pafuramidine]	–	–	+VE	vMost-DILI-Concern
O=C1c2cccc3c2[C@H](CCC3)CN1[C@@H]1CN2CCC1CC2 [palonosetron]	–	–	-VE	Ambiguous DILI-concern
CC(=O)O[C@H]1C[C@@H]2CC[C@@H]3[C@H](CC[C@@]4(C)[C@H]3C[C@H]([N+]3(C)CCCCC3)[C@@H]4OC(C)=O)[C@@]2(C)C[C@@H]1[N+]1(C)CCCCC1 [pancuronium]	-VE	vNo-DILI-Concern	–	–
COc1ccnc(C[S+]([O-])c2nc3ccc(OC(F)F)cc3[nH]2)c1OC (stereo not drawn) [pantoprazole]	–	–	+VE	vLess-DILI-Concern
COc1ccc(Cc2nccc3cc(OC)c(OC)cc23)cc1OC [papaverine]	+VE	vMost-DILI-Concern	–	–
C[C@H](/C=C/[C@H](C)C(C)(C)O)[C@H]1CC[C@H]2/C(=C/C=C3C[C@@H](O)C[C@H](O)C3)CCC[C@]12C [paricalcitol]	–	–	-VE	Ambiguous DILI-concern
Nc1nc2[nH]cc(CCc3ccc(C(=O)N[C@@H](CCC(=O)O)C(=O)O)cc3)c2c(=O)[nH]1 [pemetrexed]	–	–	-VE	Ambiguous DILI-concern
CSCC[C@H](NC(=O)[C@H](Cc1c[nH]c2ccccc12)NC(=O)CCNC(=O)OC(C)(C)C)C(=O)N[C@@H](CC(=O)O)C(=O)N[C@@H](Cc1ccccc1)C(N)=O [pentagastrin]	-VE	vNo-DILI-Concern	–	–
N=C(N)c1ccc(OCCCCCOc2ccc(C(=N)N)cc2)cc1 [pentamidine]	–	–	+VE	vLess-DILI-Concern
CC(C)=CCN1CCC2(C)c3cc(O)ccc3CC1C2C (stereo not drawn) [pentazocine]	–	–	-VE	vNo-DILI-Concern
O=C(O)CN(CCN(CC(=O)O)CC(=O)O)CCN(CC(=O)O)CC(=O)O [pentetic acid]	–	–	-VE	vNo-DILI-Concern
CCCC(C)C1(CC)C(=O)NC(=O)NC1=O (stereo not drawn) [pentobarbital]	–	–	-VE	Ambiguous DILI-concern
OC[C@H]1O[C@@H](n2cnc3c2NC=NC[C@H]3O)C[C@@H]1O [pentostatin]	–	–	+VE	vMost-DILI-Concern
CC(=O)CCCCn1c(=O)c2c(ncn2C)n(C)c1=O [pentoxifylline]	–	–	-VE	Ambiguous DILI-concern
FC(F)(F)C(F)(F)C(F)(F)F [perflutren]	–	–	-VE	vNo-DILI-Concern
CCC[C@H](N[C@@H](C)C(=O)N1[C@H](C(=O)O)C[C@@H]2CCCC[C@@H]21)C(=O)OCC [perindopril]	–	–	-VE	Ambiguous DILI-concern
CC1=C(C/C=C(\C)CCC[C@H](C)CCC[C@H](C)CCCC(C)C)C(=O)c2ccccc2C1=O [phytonadione]	–	–	-VE	vNo-DILI-Concern
O=C(O)C[C@H](O)C[C@H](O)/C=C/c1c(C2CC2)nc2ccccc2c1-c1ccc(F)cc1 [pitavastatin]	–	–	-VE	Ambiguous DILI-concern
c1cc(CN2CCCNCCNCCCNCC2)ccc1CN1CCCNCCNCCCNCC1 [plerixafor]	–	–	-VE	vNo-DILI-Concern
CN1C(CSCC(F)(F)F)Nc2cc(Cl)c(S(N)(=O)=O)cc2S1(=O)=O (stereo not drawn) [polythiazide]	–	–	-VE	Ambiguous DILI-concern
CC[C@@H]([C@H](C)O)n1ncn(-c2ccc(N3CCN(c4ccc(OC[C@@H]5CO[C@@](Cn6cncn6)(c6ccc(F)cc6F)C5)cc4)CC3)cc2)c1=O [posaconazole]	–	–	-VE	Ambiguous DILI-concern
C#CCC(Cc1cnc2nc(N)nc(N)c2n1)c1ccc(C(=O)N[C@@H](CCC(=O)O)C(=O)O)cc1 (stereo partly drawn) [pralatrexate]	–	–	-VE	Ambiguous DILI-concern
C[n+]1ccccc1/C=N/O [pralidoxime]	–	–	-VE	Ambiguous DILI-concern
CCO[C@@H]1OC(=O)C[C@@H]1NC(=O)[C@@H]1CCCN2C(=O)CC[C@H](NC(=O)c3nccc4ccccc34)C(=O)N12 [pralnacasan]	–	–	+VE	vMost-DILI-Concern
